From PubChem BioAssay AID1963837 (Molecular Pharmacology Branch, DTP, NCI, 2024)

Tested on: 843126-344-R-J1-PDC complex spheroid viability
Assay: Anticancer human tumor 843126-344-R-J1-PDC patient-derived melanoma cell line growth inhibition [POLQ]
Conditions: for IC50: curve of first compound; for viability, T/C: stronger effect = lower value
Outline: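 PDC + HUVEC + MSC complex spheroids; POLQ inhibitors ± partner drugs; top conc. at/near clinical Cmax, else 10 microM (SN-38 1 microM), half-log dilutions; 37 degrees C, 5% CO2.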

[1] = second compound 0.0316 µM, first compound 0.0316 µM
[2] = second compound 0.0316 µM, first compound 0.1 µM
[3] = second compound 0.0316 µM, first compound 0.316 µM
[4] = second compound 0.0316 µM, first compound 1 µM
[5] = second compound 0.0316 µM, first compound 3.16 µM
[6] = second compound 0.0316 µM, first compound 10 µM
[7] = second compound 0.1 µM, first compound 0.0316 µM
[8] = second compound 0.1 µM, first compound 0.1 µM
[9] = second compound 0.1 µM, first compound 0.316 µM
[10] = second compound 0.1 µM, first compound 1 µM
[11] = second compound 0.1 µM, first compound 3.16 µM
[12] = second compound 0.1 µM, first compound 10 µM
[13] = second compound 0.316 µM, first compound 0.0316 µM
[14] = second compound 0.316 µM, first compound 0.1 µM
[15] = second compound 0.316 µM, first compound 0.316 µM
[16] = second compound 0.316 µM, first compound 1 µM
[17] = second compound 0.316 µM, first compound 3.16 µM
[18] = second compound 0.316 µM, first compound 10 µM
[19] = second compound 1 µM, first compound 0.0316 µM
[20] = second compound 1 µM, first compound 0.1 µM
[21] = second compound 1 µM, first compound 0.316 µM
[22] = second compound 1 µM, first compound 1 µM
[23] = second compound 1 µM, first compound 3.16 µM
[24] = second compound 1 µM, first compound 10 µM
[25] = second compound 3.16 µM, first compound 0.0316 µM
[26] = second compound 3.16 µM, first compound 0.1 µM
[27] = second compound 3.16 µM, first compound 0.316 µM
[28] = second compound 3.16 µM, first compound 1 µM
[29] = second compound 3.16 µM, first compound 3.16 µM
[30] = second compound 3.16 µM, first compound 10 µM
[31] = second compound 10 µM, first compound 0.0316 µM
[32] = second compound 10 µM, first compound 0.1 µM
[33] = second compound 10 µM, first compound 0.316 µM
[34] = second compound 10 µM, first compound 1 µM
[35] = second compound 10 µM, first compound 3.16 µM
[36] = second compound 10 µM, first compound 10 µM
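For viability, T/C in this document: spheroids exposed to drugs for seven days before readout.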

`CC1COCCN1c1cc(C2(S(C)(=N)=O)CC2)nc(-c2ccnc3[nH]ccc23)n1` (stereo unspecified) + Nc1ccc(C#CCN(C(=O)Cc2ncc(C(F)(F)F)cc2C(F)(F)F)c2ccc(F)cc2)nn1 showed an IC50 (second compound 0.0316 µM) greater than 10 µM, an IC50 (second compound 0.1 µM) greater than 10 µM and an IC50 (second compound 0.316 µM) of 9.88 µM. It also gave an IC50 (second compound 1 µM) greater than 10 µM, an IC50 (second compound 3.16 µM) greater than 10 µM and an IC50 (second compound 10 µM) greater than 10 µM. The viability, T/C [1] was 101%, the viability, T/C [2] was 84.8% and the viability, T/C [3] was 86.6%. It also gave a viability, T/C [4] of 76.9%, a viability, T/C [5] of 72.7% and a viability, T/C [6] of 51.6%. For the same compound, the viability, T/C [7] was 84.8%, the viability, T/C [8] was 90.2% and the viability, T/C [9] was 88.8%. It also gave a viability, T/C [10] of 103%, a viability, T/C [11] of 76.1% and a viability, T/C [12] of 55.8%. It also gave a viability, T/C [13] of 88.4%, a viability, T/C [14] of 92.1% and a viability, T/C [15] of 82.3%. The viability, T/C [16] was 77.5%, the viability, T/C [17] was 70% and the viability, T/C [18] was 49.2%. The viability, T/C [19] was 96.2%, the viability, T/C [20] was 92.8% and the viability, T/C [21] was 86.3%. The viability, T/C [22] was 90.5%, the viability, T/C [23] was 76.3% and the viability, T/C [24] was 51.8%. The viability, T/C [25] was 89.9%, the viability, T/C [26] was 84% and the viability, T/C [27] was 89%. The viability, T/C [28] was 86.1%, the viability, T/C [29] was 69.8% and the viability, T/C [30] was 53.8%. It also gave a viability, T/C [31] of 94.6%, a viability, T/C [32] of 84% and a viability, T/C [33] of 81.5%. For the same compound, the viability, T/C [34] was 75.1%, the viability, T/C [35] was 65.2% and the viability, T/C [36] was 51.8%.
Work on `C=CC(=O)N1CCN(c2nc(=O)n(-c3c(C)ccnc3C(C)C)c3nc(-c4c(O)cccc4F)c(F)cc23)C(C)C1` (stereo unspecified) + Nc1ccc(C#CCN(C(=O)Cc2ncc(C(F)(F)F)cc2C(F)(F)F)c2ccc(F)cc2)nn1 yielded an IC50 (second compound 0.0316 µM) greater than 10 µM, an IC50 (second compound 0.1 µM) greater than 10 µM and an IC50 (second compound 0.316 µM) greater than 10 µM. The IC50 (second compound 1 µM) was greater than 10 µM, the IC50 (second compound 3.16 µM) was greater than 10 µM and the IC50 (second compound 10 µM) was greater than 10 µM. It also gave a viability, T/C [1] of 105%, a viability, T/C [2] of 82.8% and a viability, T/C [3] of 97.3%. For the same compound, the viability, T/C [4] was 102%, the viability, T/C [5] was 101% and the viability, T/C [6] was 84.4%. It also gave a viability, T/C [7] of 104%, a viability, T/C [8] of 86.1% and a viability, T/C [9] of 84.9%. The viability, T/C [10] was 97.8%, the viability, T/C [11] was 99.2% and the viability, T/C [12] was 85.6%. The viability, T/C [13] was 89.3%, the viability, T/C [14] was 94.9% and the viability, T/C [15] was 104%. For the same compound, the viability, T/C [16] was 113%, the viability, T/C [17] was 94.5% and the viability, T/C [18] was 85.1%. For the same compound, the viability, T/C [19] was 101%, the viability, T/C [20] was 104% and the viability, T/C [21] was 107%. It also gave a viability, T/C [22] of 94.7%, a viability, T/C [23] of 104% and a viability, T/C [24] of 85.4%. It also gave a viability, T/C [25] of 87.5%, a viability, T/C [26] of 88.7% and a viability, T/C [27] of 106%. It also gave a viability, T/C [28] of 92.2%, a viability, T/C [29] of 85.8% and a viability, T/C [30] of 84.5%. The viability, T/C [31] was 83.7%, the viability, T/C [32] was 91.1% and the viability, T/C [33] was 84.1%. The viability, T/C [34] was 98.5%, the viability, T/C [35] was 95.7% and the viability, T/C [36] was 81.2%.
`C=CC(=O)N1CCN(c2nc(=O)n(-c3c(C)ccnc3C(C)C)c3nc(-c4c(O)cccc4F)c(F)cc23)C(C)C1` (stereo unspecified) + COC1C(OC(N)=O)C(O)C(Oc2ccc3c(O)c(NC(=O)c4ccc(O)c(CC=C(C)C)c4)c(=O)oc3c2C)OC1(C)C showed an IC50 (second compound 0.0316 µM) greater than 10 µM, an IC50 (second compound 0.1 µM) greater than 10 µM and an IC50 (second compound 0.316 µM) greater than 10 µM. The IC50 (second compound 1 µM) was greater than 10 µM, the IC50 (second compound 3.16 µM) was greater than 10 µM and the IC50 (second compound 10 µM) was greater than 10 µM. The viability, T/C [1] was 98.3%, the viability, T/C [2] was 100% and the viability, T/C [3] was 97.4%. It also gave a viability, T/C [4] of 89%, a viability, T/C [5] of 94.9% and a viability, T/C [6] of 71.4%. For the same compound, the viability, T/C [7] was 110%, the viability, T/C [8] was 108% and the viability, T/C [9] was 101%. For the same compound, the viability, T/C [10] was 113%, the viability, T/C [11] was 92.8% and the viability, T/C [12] was 80.5%. For the same compound, the viability, T/C [13] was 88.7%, the viability, T/C [14] was 111% and the viability, T/C [15] was 103%. The viability, T/C [16] was 85%, the viability, T/C [17] was 101% and the viability, T/C [18] was 78.6%. It also gave a viability, T/C [19] of 99.8%, a viability, T/C [20] of 95% and a viability, T/C [21] of 104%. The viability, T/C [22] was 108%, the viability, T/C [23] was 114% and the viability, T/C [24] was 68%. For the same compound, the viability, T/C [25] was 107%, the viability, T/C [26] was 74.1% and the viability, T/C [27] was 105%. It also gave a viability, T/C [28] of 113%, a viability, T/C [29] of 97.7% and a viability, T/C [30] of 77.7%. For the same compound, the viability, T/C [31] was 82.7%, the viability, T/C [32] was 107% and the viability, T/C [33] was 92.9%. For the same compound, the viability, T/C [34] was 98.3%, the viability, T/C [35] was 104% and the viability, T/C [36] was 83.5%.
